Entries after “also recorded” stand apart in the source; their conditions may differ.
Key:
hLRH-1 = target: T1, hLRH-1 (Homo sapiens, UniProt O00482); test: RT-qPCR of hLRH-1 target gene CYP24A1 in HepG2 / HepG2-hLRH-1 cells; assay type: cell-based
T1 construct: expressed in transfected cells; host or cells: TET-On 3G HepG2 cells; Dox-inducible pTRE 3G vector (Clontech)

F342W/I416W hLRH-1 = target: T2, F342W/I416W hLRH-1 (Homo sapiens, UniProt O00482, F342W/I416W); test: RT-qPCR of CYP24A1 in HepG2 cells stably expressing the hLRH-1 pocket mutant; assay type: cell-based; details: 10 μM, 16 h, low levels of hLRH-1; listed as PME8
T2 construct: expressed in transfected cells; host or cells: TET-On 3G HepG2 cells; Dox-inducible pTRE 3G vector (Clontech)
Experimental: Cell lines and Quantitative Real-time Polymerase Chain Reaction (RT-qPCR) Assay. […] Induction of low or high levels of hLRH-1 was achieved by addition of DMSO or 500 ng/ml Dox, respectively.
For RT-qPCR assay, cells (5×10^5) were plated on 24-well plates in 0.5 mL of media. The following day, fresh media was applied with compound or DMSO control. After an overnight treatment or indicated period of time, cells were washed with ice-cold 1×PBS and total RNA was isolated by Trizol (Life Technologies). DNase-treated total RNA was used to generate cDNA using High-Capacity cDNA Reverse Transcription kits (Life Technologies). RT-qPCR was performed with SYBR (Biotool) and data analyzed essentially as described [19].

[1] = target: biotinylated apo hLRH-1 LBD (Homo sapiens, UniProt O00482); test: Surface plasmon resonance binding assay; details: SPR, 25° C., titration from 300 μM, 1:1 binding model; listed as PME8
Experimental: Surface Plasmon Resonance Assays. Data were collected on a BiaCore T100 instrument. The biotin CAPture kit (GE Healthcare Life Science) was used as directed for chip preparation and immobilization of protein. In brief, the CAP chip was first conditioned with 3×1 min injec-tions of the provided regeneration solution (6 M Guanidine HCL, 0.25 M NaOH). CAP reagent was then captured on flow cells 1 and 2 to a final density of ˜2500 response units using capture buffer (25 mM HEPES, pH 7.4, 150 mM NaCl). Avi-tagged LRH-1 was then directly injected exclusively on to flow cell 2 achieving a final density of ˜1000 response units (capture buffer). […] A titration series for each fragment was generated as a 0.6× dilution series starting from 300 μM. All samples were made to match the running buffer used in the experiment as closely as possible (capture buffer+3% DMSO, +0.05% Tween-20, 250 μM TCEP). Data was collected at 25° C. with a flow rate of 30 μL/min. Data processing included referencing to both the reference flow cell as well as a buffer injection. Equilibrium binding constants were determined by nonlinear regression analysis utilizing a simple 1:1 binding model. Steady state values used to generate dose-responses curve correspond to the response units achieved 20 seconds after injection.

TBP = test: RT-qPCR of housekeeping gene TBP in HepG2-hLRH-1 cells; assay type: cell-based, human; details: high hLRH-1 (+Dox), 16 h, SR1848 10 μM
Experimental: FIG. 9. Effects of select compounds targeting hLRH-1 compared to PME8. Agonists and antagonists were tested in HepG2-hLRH-1 cells expressing high levels (+Dox) of hLRH-1; activating compounds were added for 16 h relative to the DMSO control (black bars) at the following concentrations: RJW100 (10 μM), DLPC (20 μM), PME8 (10 μM) (bolded, this study) as well as the two putative antagonist/repressors, SR1848 (10 μM) and Cpd3 (10 μM); relative levels of the hLRH-1 target, CYP24A1 (left set of bars) and the housekeeping gene, TBP (right set of bars) are shown with all values normalized to GAPDH. Error bars represents SEM and P values=****<0.0001.
Finally, to ask how PME8 and PME9 compare to other published compounds, we directly compared the activity of all compounds with respect to the ability to activate or repress CYP24A1 expression in HepG2-hLRH-1 cells. For this experiment, assays were carried out under high levels of hLRH-1 (+Dox) to maximize our ability to see any repressive effects of compounds and the ligand concentrations used were based on published effective doses. […] Of the two published antagonist/repressors, only SR1848 decreased CYP24A1 levels. […]
For RT-qPCR assay, cells (5×10^5) were plated on 24-well plates in 0.5 mL of media. […] RT-qPCR was performed with SYBR (Biotool) and data analyzed essentially as described. […]

T1 sequence (O00482 whole entry): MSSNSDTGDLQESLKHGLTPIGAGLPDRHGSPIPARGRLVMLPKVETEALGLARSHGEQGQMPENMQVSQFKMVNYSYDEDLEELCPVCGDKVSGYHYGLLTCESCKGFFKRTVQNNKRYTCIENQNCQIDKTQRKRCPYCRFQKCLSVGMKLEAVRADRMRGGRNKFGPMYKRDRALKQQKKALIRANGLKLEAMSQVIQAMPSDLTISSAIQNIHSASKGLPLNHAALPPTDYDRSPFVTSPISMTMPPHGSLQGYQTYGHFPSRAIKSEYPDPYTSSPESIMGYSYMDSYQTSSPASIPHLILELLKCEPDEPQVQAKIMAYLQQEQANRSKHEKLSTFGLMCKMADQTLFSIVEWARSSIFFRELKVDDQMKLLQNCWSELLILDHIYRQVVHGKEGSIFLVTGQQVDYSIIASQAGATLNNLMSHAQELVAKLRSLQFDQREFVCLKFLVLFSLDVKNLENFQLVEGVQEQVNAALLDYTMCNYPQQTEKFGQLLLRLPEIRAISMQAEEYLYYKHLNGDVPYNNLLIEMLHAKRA
T2 sequence (O00482 whole entry F342W/I416W): as the sequence (O00482 whole entry) above, with F342W, I416W counted along it
biotinylated apo hLRH-1 LBD, sequence (O00482 300-539 limits assumed): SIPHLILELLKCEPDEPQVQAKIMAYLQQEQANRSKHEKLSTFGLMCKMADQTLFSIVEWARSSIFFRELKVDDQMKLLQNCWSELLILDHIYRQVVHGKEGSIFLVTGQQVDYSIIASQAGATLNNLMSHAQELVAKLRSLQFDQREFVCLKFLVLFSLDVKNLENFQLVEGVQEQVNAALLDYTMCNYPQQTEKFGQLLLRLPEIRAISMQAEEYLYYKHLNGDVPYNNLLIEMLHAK

In the case of `CCCNC(=O)c1cc(C(C)(C)C)cc(C(C)(C)C)c1O` [Compound 8, 3,5-di-tert-butyl-2-hydroxy-N-propylbenzamide], the “CYP24A1 expression after siRNA-mediated knockdown of hLRH-1 (dependence on hLRH-1)” value (hLRH-1; 10 μM, siLRH-1 vs siControl, HepG2-hLRH-1 cells, low hLRH-1 (−Dox), listed as PME8) is reported as “precipitous drop in CYP24A1 expression; also recorded: Depends on hLRH-1”, the “treatment time of maximal activity (CYP24A1 levels)” value (hLRH-1; HepG2-hLRH-1 cells) is reported as 16 h and the “time and dose dependence of CYP24A1 induction” value (hLRH-1; HepG2-hLRH-1 cells, 3-24 h at 10 μM, increasing concentrations for 16 h, −Dox or +Dox, listed as PME8) is reported as “time-dependent (FIG. 7A) and dose-dependent”. For the same compound, the “activity (CYP24A1 transcripts) in cells expressing the pocket mutant versus wild type hLRH-1” value (F342W/I416W hLRH-1) was “decreased; also recorded: depends on an intact hLRH-1 ligand binding pocket” and the “binding to the hLRH-1 LBD” value [1] was “direct binding; also recorded: bind directly”.
For `O=c1cc(N2CCN(c3cccc(Cl)c3)CC2)[nH]c(=O)n1C1CCCCC1` [SR1848, reference compound], the “CYP24A1 expression, comparison of published compounds” value (hLRH-1; high hLRH-1 (+Dox), 16 h, RJW100 10 μM, DLPC 20 μM, SR1848 10 μM) was “decreased” and the “expression of the housekeeping gene TBP” value (TBP) was “substantial repression”.

— patent US10980755B2, “LRH-1 modulators” (THE REGENTS OF THE UNIVERSITY OF CALIFORNIA, priority 2015, dated 2021)
